Tests used:
[1] = target: T1, BRD4 BD2 (Homo sapiens, UniProt O60885, Y97A); experiment: TR-FRET competition assay, BRD4 BD2 (single mutant tandem bromodomain protein); format: binding; details: for IC50: read-out: pIC50 in the BRD4 BD2 assay (converted); for selectivity for BRD4 BD2 over BRD4 BD1: Selectivity = BRD4 BD2 pIC50 - BRD4 BD1 pIC50, in at least one of the TR-FRET assays; for fold selective for BRD4 BD2 over BRD4 BD1: from the pIC50 difference BRD4 BD2 - BRD4 BD1
T1 construct: BRD4 (1-477) (Y97A) and (Y390A); made in house; host or cells: E. coli (pET15b vector)
Experimental: Time Resolved Fluorescence Resonance Energy Transfer (TR-FRET) Assay
Bromodomain binding was assessed utilising a time resolved fluorescent resonance energy transfer (TR-FRET) competition assay. To enable this approach a known, high affinity, pan-BET interacting small molecule was labelled with Alexa Fluor® 647, which is a far-red-fluorescent dye (Reference Compound X). Reference Compound X acts as a reporter of bromodomain binding and is the acceptor fluorophore component of the TR-FRET pair. Europium chelate, conjugated to an anti-6*His antibody, was utilised as the donor fluorophore in the TR-FRET pair. […] A TR-FRET signal is generated when the donor and acceptor fluorophores are in close proximity, between 20-80 Å, which is enabled in this assay by binding of Reference Compound X to the bromodomain protein.
If the acceptor fluorophore is in close proximity then energy transfer can occur, which leads to emission of Alexa Fluor® 647 at λ665 nm. In the presence of competitor compound, Reference Compound X can be displaced from binding to the bromodomain. If displacement occurs, the acceptor fluorophore is no longer in proximity to the donor fluorophore, which prevents fluorescent energy transfer and, subsequently, a loss of Alexa Fluor® 647 emission at λ665 nm.
The competition of the compounds of formula (I) with Reference Compound X for binding to the BET family (BRD2, BRD3, BRD4 and BRDT) was assessed using protein truncates spanning both bromodomain 1 (BD1) and bromodomain 2 (BD2). In order to monitor differential binding to either BD1 or BD2, single residue mutations of key tyrosines to alanine were made in the acetyl lysine binding pockets. To validate this approach, a double residue mutant tandem domain protein was produced for each of the BET family members. Utilising a Fluorescence Polarisation approach, binding affinities for each of the single and double mutants for Reference Compound X were determined. […] Final purification was completed by Superdex 200 prep grade size exclusion column. Purified protein was stored at −80° C. in 20 mM HEPES pH 7.5 and 100 mM NaCl.
Protocol for Bromodomain BRD2, 3, 4 and T, BD1+BD2 mutant TR-FRET competition assays:
All assay components were dissolved in an assay buffer composing of 50 mM HEPES pH7.4, 50 mM NaCl, 5% Glycerol, 1 mM DTT and 1 mM CHAPS. […] The solution containing bromodomain and Reference Compound X was added to dose response dilutions of test compound or DMSO vehicle (a maximum of 0.5% DMSO is used in this assay) in Greiner 384 well black low volume microtitre plates and subsequently incubated for 30 minutes at room temperature. An equal volume of 3 nM of anti-6*His Europium chelate was added to all wells, followed by a further 30 minute incubation at room temperature. TR-FRET was detected using a Perkin Elmer Multimode plate reader, by exciting the donor fluorophore at A337 nm and subsequently, after a delay of 50 μsecs, measuring emission of the donor and acceptor fluorophores at A615 nm and λ665 nm, respectively. In order to control these assays, 16 replicates each of uninhibited (DMSO vehicle) and inhibited (10*IC50 concentrations of Example 11 of WO 2011/054846A1) TR-FRET assays were included on every microtitre plate.
cA four parameter curve fit of the following form was then applied: y=a+((b−a)/(1+(10^x/10^c)^d)
Where ‘a’ is the minimum, ‘b’ is the Hill slope, ‘c’ is the pIC50 and ‘d’ is the maximum.

[2] = test system: BET family (BRD2, BRD3, BRD4 and BRDT) tandem bromodomain proteins, Tyrosine to Alanine mutants; experiment: Fluorescence Polarisation binding of Reference Compound X to single and double mutant tandem BET proteins; parameters: species or system Human
Experimental: The competition of the compounds of formula (I) with Reference Compound X for binding to the BET family (BRD2, BRD3, BRD4 and BRDT) was assessed using protein truncates spanning both bromodomain 1 (BD1) and bromodomain 2 (BD2). In order to monitor differential binding to either BD1 or BD2, single residue mutations of key tyrosines to alanine were made in the acetyl lysine binding pockets. To validate this approach, a double residue mutant tandem domain protein was produced for each of the BET family members. Utilising a Fluorescence Polarisation approach, binding affinities for each of the single and double mutants for Reference Compound X were determined. […] The affinities of the single mutated bromodomain tandem proteins for Reference Compound X were equi-potent with the corresponding non-mutated BET protein. […] Final purification was completed by Superdex 200 prep grade size exclusion column. Purified protein was stored at −80° C. in 20 mM HEPES pH 7.5 and 100 mM NaCl. Protein identity was confirmed by peptide mass fingerprinting and predicted molecular weight confirmed by mass spectrometry.

[3] = TR-FRET competition with Reference Compound X, values exemplary only

Row | Structure (SMILES) | IC50 [1, 3] | further results
1 | CNC(=O)c1cc(C(=O)N[C@H]2[C@@H]3COC[C@@H]32)cc(C(CF)c2ccccc2)n1 (mixture of isomers) [Example 164, (+/−)-N^4-((1R,5S,6r)-3-Oxabicyclo[3.1.0]hexan-6-yl)-6-(2-fluoro-1-phenylethyl)-N^2-methylpyridine-2,4-dicarboxamide] | 1 to 10 µM | –
2 | CNC(=O)c1cc(C(=O)NCC[C@H]2CNCCO2)cc(C(C)c2ccccc2)n1 (single isomer, unassigned) [Example 41, N^2-Methyl-N^4-(2-((S)-morpholin-2-yl)ethyl)-6-((S*)-1-phenylethyl)pyridine-2,4-dicarboxamide] | 0.0398 µM | selectivity for BRD4 BD2 over BRD4 BD1 [1]: 3.0 log units; fold selective for BRD4 BD2 over BRD4 BD1 [1]: at least 1000 fold
3 | CNC(=O)c1cc(C(=O)N[C@H]2[C@@H]3COC[C@@H]32)cc([C@@H](CF)c2ccccc2)n1 (single isomer, unassigned) [Example 165, N^4-((1R,5S,6r)-3-Oxabicyclo[3.1.0]hexan-6-yl)-6-((S*)-2-fluoro-1-phenylethyl)-N^2-methylpyridine-2,4-dicarboxamide] | 1 to 10 µM | –
4 | CNC(=O)c1cc(C(=O)N[C@H]2[C@@H]3COC[C@@H]32)cc([C@H](CF)c2ccccc2)n1 (single isomer, unassigned) [Example 166, N^4-((1R,5S,6r)-3-Oxabicyclo[3.1.0]hexan-6-yl)-6-((R*)-2-fluoro-1-phenylethyl)-N^2-methylpyridine-2,4-dicarboxamide] | 1 to 10 µM | –
5 | CNC(=O)c1cc(C(=O)NCCCC2OCC(N)CO2)cc(C(OC)c2ccccc2)n1 [Example 161, N^4-(3-((2r,5S)-5-Amino-1,3-dioxan-2-yl)propyl)-6-((R*)-methoxy(phenyl)methyl)-N2-methylpyridine-2,4-dicarboxamide] | – | selectivity for BRD4 BD2 over BRD4 BD1 [1]: 3.2 log units; pIC50 in the BRD4 BD2 assay [1, 3]: 7.6 log10 units; fold selective for BRD4 BD2 over BRD4 BD1 [1]: at least 1000 fold
6 | COc1ccc2c(c1)C(c1ccc(Cl)cc1)=N[C@@H](CC(=O)NCCCCCNC(=O)CCCCCC1(C)/C(=C/C=C/C=C/C3=[N+](CCCCS(=O)(=O)O)c4ccc(S(=O)(=O)O)cc4C3(C)C)N(CCCCS(=O)(=O)[O-])c3ccc(S(=O)(=O)O)cc31)c1nnc(C)n1-2 (stereo partly drawn) [Reference Compound X] | – | reduction in Kd (affinity) of double mutant tandem proteins in comparison to non mutated, wild type tandem BET proteins ([2]; double residue mutant tandem domain protein, each BET family member): > 1000 fold; reduction of the Kd of the interaction between the mutated bromodomain and Reference Compound X ([2]; single mutations of Tyrosine to Alanine): > 1000 fold

Now from value to molecule, other results behind:

Row | IC50 [1, 3] | Structure (SMILES) | further results
7 | 1 to 10 µM | CNC(=O)c1cc(C(=O)NCC2CCCO2)cc(Cc2ccccc2)n1 (racemic) [Example 84, (+/−)-6-Benzyl-N^2-methyl-N^4-((tetrahydrofuran-2-yl)methyl)pyridine-2,4-dicarboxamide] | –
8 | 1 to 10 µM | CNC(=O)c1cc(C(=O)NCC2CCCCO2)cc(Cc2ccccc2)n1 (racemic) [Example 85, (+/−)-6-Benzyl-N^2-methyl-N^4-((tetrahydro-2H-pyran-2-yl)methyl)pyridine-2,4-dicarboxamide] | –
9 | 1 to 10 µM | CNC(=O)c1cc(C(=O)NCC2CCOCC2)cc(Cc2ccccc2)n1 [Example 87, 6-Benzyl-N^2-methyl-N^4-((tetrahydro-2H-pyran-4-yl)methyl)pyridine-2,4-dicarboxamide] | –
10 | 0.0501 µM | CNC(=O)c1cc(C(=O)N[C@H]2[C@@H]3COC[C@@H]32)cc(Cc2cccc3c2CCN3)n1 [Example 130, N^4-((1R,5S,6r)-3-Oxabicyclo[3.1.0]hexan-6-yl)-6-(indolin-4-ylmethyl)-N^2-methylpyridine-2,4-dicarboxamide] | –
